“Also recorded” adds a separate entry of the source. Like-named read-outs stand apart in the source and are kept apart here.
Tests used:
[1] = biological target: T1, C. albicans HSP90-mNeonGreen (Candida albicans, UniProt P46598); assay: Microscale thermophoresis, AMP-PNP binding; settings: 50 nM HSP90-mNeonGreen, 25 °C, error of the fit; read-out: Kd, binding to C. albicans HSP90-mNeonGreen (MST)
T1 construct: made in house; host or cells: E. coli BL21(DE3)
Experimental: HSP90-mNeonGreen (C. albicans) or mNeonGreen serving as the negative control was adjusted to 100 nM with Sba1 buffer (40 mM HEPES/KOH pH 7.5, 20 mM KCl). The ligand AMP-PNP was dissolved in 2x reaction buffer (40 mM HEPES/KOH pH 7.5, 20 mM KCl, 10 mM MgCl2, 40 mM Na2MoO4, 0.2% Triton-X 100), and a series of 16 1:1 dilutions was prepared using the same buffer, producing ligand concentrations ranging from […] to […]. For the measurement, each ligand dilution was mixed with one volume of HSP90-mNeonGreen or mNeonGreen, which led to a final concentration of 50 nM and final ligand concentrations ranging from 153 nM to […]. After 5 min incubation at room temperature, the samples were loaded into Monolith NT.115 Capillaries (NanoTemper Technologies, Munich, Germany). MST was measured using a Monolith NT.115 at an ambient temperature of 25 °C. Instrument parameters were adjusted to 35% LED power and a high MST power of 80%. Data of three independently pipetted measurements were analyzed (MO.Affinity Analysis software version 2.1.3, NanoTemper Technologies, Munich, Germany) using the signal from an MST-on time of 30 s.

[2] = biological target: human HSP90β; design: method as in earlier work; settings: 25 °C; ref 37 (McLaughlin et al.); read-out: Kd, binding to human HSP90β; cited from earlier work
[3] = biological target: human HSP90β–p23 complex; design: method as in PMID 16403413; settings: read-out: Kd, binding to human HSP90β–p23 complex; cited from earlier work
[4] = biological target: T2, C. albicans HSP90–Sba1 binding (Candida albicans, UniProt P46598); assay: FRET inhibitor screening assay, C. albicans HSP90-Sba1 binding; settings: 10 or 100 µM (Sba1 20 µM), triplicates, 3 mM ATP, 1% DMSO, 15 min 30 °C
T2 construct: made in house; host or cells: E. coli BL21(DE3)
T2 sequence (P46598 whole entry): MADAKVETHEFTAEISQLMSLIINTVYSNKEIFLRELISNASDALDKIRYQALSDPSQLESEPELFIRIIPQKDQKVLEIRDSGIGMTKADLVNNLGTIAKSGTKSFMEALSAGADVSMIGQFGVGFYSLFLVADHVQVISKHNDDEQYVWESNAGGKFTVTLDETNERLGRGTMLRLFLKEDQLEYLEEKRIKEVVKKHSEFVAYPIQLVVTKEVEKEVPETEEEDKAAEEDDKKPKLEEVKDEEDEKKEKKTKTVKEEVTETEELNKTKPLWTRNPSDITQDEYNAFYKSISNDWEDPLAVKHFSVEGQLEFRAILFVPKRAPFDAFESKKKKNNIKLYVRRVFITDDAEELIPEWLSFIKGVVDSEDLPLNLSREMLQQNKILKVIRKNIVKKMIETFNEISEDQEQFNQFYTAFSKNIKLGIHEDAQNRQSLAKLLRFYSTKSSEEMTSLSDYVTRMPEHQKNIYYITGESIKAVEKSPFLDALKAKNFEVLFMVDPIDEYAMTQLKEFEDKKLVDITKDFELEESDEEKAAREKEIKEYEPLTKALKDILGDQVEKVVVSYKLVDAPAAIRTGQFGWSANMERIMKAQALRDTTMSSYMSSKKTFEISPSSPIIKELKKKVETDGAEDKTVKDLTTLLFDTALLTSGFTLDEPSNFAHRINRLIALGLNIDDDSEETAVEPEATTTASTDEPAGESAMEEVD
From the text: We used the Z′ factor (Z′) to optimize the FRET assays for screening purposes. Z′ represents a simple statistical parameter for the quality assessment and optimization of HTS assays and screening assays in general. It is a measure that determines the degree of signal separation between binding and non-binding data sets. Calculation of the Z′ factor is based on the standard deviation of the individual data sets as well as their general signal separation. Values ≥ 0.5 can be classified as excellent for screening purposes. […] When the fluorescent fusion proteins of HSP90 and co-chaperones bind to each other, FRET occurs between donor and acceptor fluorophores, and the sensitized emission (EmFRET) signal increases. Consequently, the fluorescence intensity of the donor decreases (FLDD). […] To obtain an informative Z′ value, we calculated it based on at least three independent experiments amounting to 144 samples for both binding and non-binding control data sets (Figure 4B,E). […] We defined the ‘hit threshold’ as a decrease in readout signal of more than 3 standard deviations (SDs) from the mean signal of the binding control. This constitutes a common threshold for hit identification in HTS campaigns.
(§1) FRET experiments were carried out in 384-well microtiter plates (Art. No. 3766 Corning, NY, USA, or Art. No. 781906, Greiner Bio-One GmbH, Frickenhausen, Germany) containing a final volume of 20 µL and measured with a microplate reader Infinite M200Pro (Tecan, Männedorf, Switzerland). The fluorescence was measured in three channels: excitation (ex.): 488 nm/emission (em.): 525 nm (mNeonGreen fluorescence), ex.: 561 nm/em.: 610 nm (mScarlet-I fluorescence) and the FRET channel ex.: 488 nm/em.: 610 nm. The excitation and emission bandwidths were set to 9 and 20 nm, respectively. Experiments for the determination of the equilibrium dissociation constants were performed with a filter-based microplate reader Infinite F200Pro (Tecan, Männedorf, Switzerland). The fluorescence was measured in three channels using the following filters: ex.: 485 ± 20 nm/em.: 535 ± 20 nm (mNeonGreen channel), ex.: 535 ± 20 nm/em.: 612 ± 10 nm (mScarlet-I channel) and the FRET channel ex.: 485 ± 20 nm/em.: 612 ± 10 nm. FRET emission (EmFRET) was calculated according to Song et al. 2011 [81]:(1) EmFRET=FLDA−x×FLDD−(y×FLAA) where FLDA is the fluorescence signal of the FRET channel and FLDD and FLAA are fluorescence signals from the mNeonGreen and mScarlet-I channels, respectively. The correction factors x and y were calculated as follows:(2) x=FLDA/FLDD for samples containing only the donor fluorophore or fluorescent fusion proteins with mNeonGreen and (3) y=FLDA/FLAA for samples containing only the acceptor fluorophore or fluorescent fusion proteins with mScarlet-I in the same concentration as samples containing both the donor and acceptor.
For screening for the identification of ATP-competitive C. albicans HSP90 and HSP90-Sba1 binding inhibitors, 10 µL of HSP90-mNeonGreen ([…]) in HEPES buffer (40 mM HEPES/KOH pH 7.5, 20 mM KCl) was mixed with 10 µL of 200 µM compound solution in 2x reaction buffer (40 mM HEPES/KOH pH 7.5, 20 mM KCl, 10 mM MgCl2, 40 mM Na2MoO4, Triton-X 100 0.2%), 6 mM ATP, 2% DMSO, resulting […] Samples for binding control (3 mM ATP, final concentration) and non-binding control (no ATP) were prepared in the same manner without compounds. The samples were incubated for 15 min at 30 °C prior to measurement.

[5] = biological target: HSP90; settings: cited from earlier work
[6] = test system: HSP90 - Sba1/p23 binding; settings: according to literature; cited from earlier work
[7] = biological target: T3, human HSP90α–p23 binding (Homo sapiens, UniProt P07900); assay: FRET inhibitor screening assay, human HSP90α-p23 binding; settings: 10 or 100 µM, triplicates, 3 mM ATP, 1% DMSO, 15 min 37 °C
T3 construct: made in house; host or cells: E. coli Rosetta2(DE3) pLysS
From the text: We used the Z′ factor (Z′) to optimize the FRET assays for screening purposes. Z′ represents a simple statistical parameter for the quality assessment and optimization of HTS assays and screening assays in general. It is a measure that determines the degree of signal separation between binding and non-binding data sets. Calculation of the Z′ factor is based on the standard deviation of the individual data sets as well as their general signal separation. Values ≥ 0.5 can be classified as excellent for screening purposes. […] When the fluorescent fusion proteins of HSP90 and co-chaperones bind to each other, FRET occurs between donor and acceptor fluorophores, and the sensitized emission (EmFRET) signal increases. Consequently, the fluorescence intensity of the donor decreases (FLDD). […] We defined the ‘hit threshold’ as a decrease in readout signal of more than 3 standard deviations (SDs) from the mean signal of the binding control. This constitutes a common threshold for hit identification in HTS campaigns.
The excitation and emission bandwidths were set to 9 and 20 nm, respectively. Experiments for the determination of the equilibrium dissociation constants were performed with a filter-based microplate reader Infinite F200Pro (Tecan, Männedorf, Switzerland). […] The correction factors x and y were calculated as follows:(2) x=FLDA/FLDD for samples containing only the donor fluorophore or fluorescent fusion proteins with mNeonGreen and (3) y=FLDA/FLAA for samples containing only the acceptor fluorophore or fluorescent fusion proteins with mScarlet-I in the same concentration as samples containing both the donor and acceptor.
For screening for the identification of ATP-competitive C. albicans HSP90 and HSP90-Sba1 binding inhibitors, 10 µL of HSP90-mNeonGreen (2 µM) and Sba1-mScarlet-I (4 µM) in HEPES buffer (40 mM HEPES/KOH pH 7.5, 20 mM KCl) was mixed with 10 µL of 200 µM compound solution in 2x reaction buffer (40 mM HEPES/KOH pH 7.5, 20 mM KCl, 10 mM MgCl2, 40 mM Na2MoO4, Triton-X 100 0.2%), 6 mM ATP, 2% DMSO, resulting ultimately in constant HSP90-mNeonGreen concentrations of 1 µM and Sba1-mScarlet-I 2 µM in reaction buffer. Samples for binding control (3 mM ATP, final concentration) and non-binding control (no ATP) were prepared in the same manner without compounds. The samples were incubated for 15 min at 30 °C prior to measurement. The assay for the human HSP90α–p23 binding inhibitor identification was performed analogously, with the exception that samples were incubated for 15 min at 37 °C prior to measurement. Since binding samples show both a high EmFRET as well as a reduction in donor emission (FLDD), we calculated the quotient (EmFRET/FLDD) to derive an improved signal separation and robustness. The nucleoside-mimetics library was obtained from Enamine (catalog No. NML-320-X-20, Enamine Ltd., Kyiv, Ukraine). Z′ and Z factors were calculated based on Zhang et al..

[8] = biological target: T4, C. albicans HSP90-mNeonGreen–Sba1-mScarlet-I binding (Candida albicans, UniProt P46598, E36A); settings: 20 µM added; 1 µM HSP90-mNeonGreen, 2 µM Sba1-mScarlet-I, 5 mM ATP
T4 construct: made in house; host or cells: E. coli BL21(DE3)
T4 sequence (P46598 whole entry, stated change not applied): as the sequence (P46598 whole entry) above
Experimental: (§2) In this investigation, 1 µM HSP90-mNeonGreen was incubated with 2 µM Sba1-mScarlet-I in reaction buffer containing 5 mM ATP either alone (UC) or with the addition of 20 µM Sba1. As a negative control, samples containing 20 µM bovine serum albumin (BSA) were used.
as §1
All experiments were carried out in reaction buffer (40 mM HEPES/KOH pH 7.5, 20 mM KCl, 5 mM MgCl2, 20 mM Na2MoO4, Triton-X 100 0.1%). HEPES and KCl were purchased from AppliChem, Darmstadt, Germany. […]

[9] = biological target: T5, human HSP90α-mNeonGreen–p23-mScarlet-I binding (Homo sapiens, UniProt P07900, E47A); assay: FRET characterization of model inhibitors and ATP on human HSP90α-p23 binding; settings: 5 mM ATP; for effect on FRET emission (EmFRET) versus untreated control: 20 µM added, 1 µM HSP90α-mNeonGreen, 2 µM p23-mScarlet-I
T5 construct: made in house; host or cells: E. coli Rosetta2(DE3) pLysS
Experimental: as §2, §1
All experiments were carried out in reaction buffer (40 mM HEPES/KOH pH 7.5, 20 mM KCl, 5 mM MgCl2, 20 mM Na2MoO4, Triton-X 100 0.1%). HEPES and KCl were purchased from AppliChem, Darmstadt, Germany. KOH and MgCl2 were obtained from VWR Chemicals, Darmstadt, Germany. Na2MoO4 was from Merck, Darmstadt, Germany. Triton-X 100 was purchased from Serva, Heidelberg, Germany.
For C. albicans Sba1 competition experiments for HSP90-mNeonGreen–Sba1-mScarlet-I binding, 1 µM HSP90-mNeonGreen and 1 µM Sba1-mScarlet-I were incubated with varying concentrations of Sba1 in a range of 0–25,000 nM (lowest non-zero concentration 12 nM) in reaction buffer containing 5 mM ATP. The experiment was performed twice in nonaplicates. For human p23 competition experiments for HSP90α-mNeonGreen–p23-mScarlet-I binding, 1 µM HSP90α-mNeonGreen and 1 µM p23-mScarlet-I were incubated with varying concentrations of p23 in a range of 0–50 000 nM (lowest non-zero concentration 23 nM) in reaction buffer containing 5 mM ATP. The experiment was performed twice in hexaplicates. […] The experiment was performed thrice in triplicates. […] The IC50,rel values were calculated using the equation log (inhibitor) vs. response-variable slope (four parameters) in GraphPad Prism 5. Ki values for inhibition of HSP90-mNeonGreen–Sba1-mScarlet-I/p23-mScarlet-I binding by non-labeled Sba1/p23 were calculated with One Site—Fit Ki in GraphPad Prism 5. […] The EC50,rel values were calculated using the log (agonist) vs. response-variable slope (four parameters) equation in GraphPad Prism 5.

[10] = biological target: human HSP90β; design: method as in PMID 16403413; settings: read-out: Kd of human HSP90β–p23 complex; cited from earlier work
[11] = test system: human HSP90α; design: method as in PMID 16403413; settings: cited from earlier work

T1 sequence (P46598 whole entry): as the sequence (P46598 whole entry) above

For Nc1ncnc2c1ncn2[C@@H]1O[C@H](COP(=O)(O)OP(=O)(O)NP(=O)(O)O)[C@@H](O)[C@H]1O [AMP-PNP], the Kd [1] is given as 200000 ± 70000 nM, the Kd [2] is given as 148000 ± 12000 nM and the Kd [3] is given as 39000 ± 12000 nM.

In the case of COc1c(C)cnc(Cn2cnc3c(Cl)nc(N)nc32)c1C [BIIB021], the “hit identification (EmFRET/FLDD decrease of more than 3 SDs from binding control mean)” value [4] is listed as “reliably identified as disrupting HSP90-Sba1 binding; also recorded: reliably identified as hits”, the Ki ([5]; Table S1, read-out: Ki (printed in the Kd value column)) is listed as […] and the “Influence on p23/Sba1 binding” value [6] is listed as “Yes”.

For CC1(C)CC(=O)c2c(C(F)(F)F)nn(-c3ccc(C(N)=O)c(N[C@H]4CC[C@H](OC(=O)CN)CC4)c3)c2C1 [SNX-5422], the “hit identification (EmFRET/FLDD decrease of more than 3 SDs from binding control mean)” value [4] is listed as “reliably identified as disrupting HSP90-Sba1 binding; also recorded: reliably identified as hits”, the “hit identification (EmFRET/FLDD decrease of more than 3 SDs from binding control mean)” value [7] is listed as “reliably identified as hits” and the Kd ([5]; Table S1, according to literature) is listed as 16 nM. The “Influence on p23/Sba1 binding” value [6] was “Yes”.

In the case of bovine serum albumin [BSA], the “effect on FRET emission (EmFRET) versus untreated control” value [8] is reported as “did not show a significant influence; also recorded: no significant (n.s.) reduction” and the “effect on FRET emission (EmFRET) versus untreated control” value [9] is reported as “did not show a significant influence”.

In the case of “p23: unlabeled human HSP90 co-chaperone p23 (Q15185), His6-tagged”, the “effect on FRET emission (EmFRET) versus untreated control” value [9] is reported as “significant reduction in FRET emission”, the IC50 ([9]; donor and acceptor both 1 µM, read-out: relative IC50, inhibition of HSP90α-mNeonGreen–p23-mScarlet-I binding) is reported as 1400 ± 200 nM and the “hit identification (EmFRET/FLDD decrease of more than 3 SDs from binding control mean)” value [7] is reported as “identified as hits”. The Kd [10] was 1500 nM and the “effect on HSP90 ATPase activity upon binding” value [11] was “complete abrogation”.
